Assay results published in patent publication US11324680B2, “Topical compositions” (priority 2017, dated 2022).

Tested on: Propionibacterium acnes
Assay: Antimicrobial efficacy in analogy to challenge test NF EN ISO11930, protection against acne
Type: cell-based
Conditions: 24 h; for Log reduction: Propionibacterium acnes; for Propionibacterium acnes colony count: 22° C., initial contamination 310000 cfu/ml
Protocol: The antimicrobial efficacy is assessed in analogy to the regulatory challenge test method (NF EN ISO11930). Thus, solutions of the respective active(s) in ethanol are prepared and further dissolved in physiological serum with 0.85 wt.-% NaCl in the concentrations as outlined in table 1 under sterile conditions. The samples were solubilized in physiological serum supplemented with 1 wt.-% ethanol. A control was prepared under sterile condition based on a serum with 0.85 wt.-% NaCl and 1 wt.-% ethanol (C1). […] The wells are contaminated resulting in the initial contamination as outlined in table 1. After the contamination, each well was thoroughly mixed to ensure a homogeneous distribution of bacteria. Then each plate was incubated at 22° C. for 24 h. The counting of the (remaining) population is carried out 24 h after contamination.

With `O=C(CO)[C@H](O)CO` (racemic) [erythrulose] the Log reduction (single active at 0.1 wt.-%) was 2, the Log reduction (single active at 0.3 wt.-%) was 3.5 and the “Propionibacterium acnes colony count” value (single active at 0.1 wt.-%) was 3300 cfu/ml. For the same compound, the “Propionibacterium acnes colony count” value (single active at 0.3 wt.-%) was 100 cfu/ml.

In the case of `CCCCCCCC(=O)OCC(O)CO` (centres unmarked) [glyceryl caprylate, Glyceryl caprylate], the Log reduction (single active at 0.2 wt.-%) is reported as 3, the Log reduction (single active at 0.3 wt.-%) is reported as 4.5 and the “Propionibacterium acnes colony count” value (single active at 0.2 wt.-%) is reported as 260 cfu/ml. For the same compound, the “Propionibacterium acnes colony count” value (single active at 0.3 wt.-%) was 10 cfu/ml.
